From article PMC7529893, “Structural basis for substrate recognition and chemical inhibition of oncogenic MAGE ubiquitin ligases” (Nature Communications, 2020)

Target: T1, MAGE-A11:PCF11 interaction (GST-MAGE-A11 and FAM-PCF11_4) (Homo sapiens, UniProt P43364)
T1 construct: GST-MAGE-A11 MHD (human MAGE-A11 MHD amino acid 218-429); made in house; host or cells: E. coli BL21(DE3)
T1 sequence (P43364 218-429): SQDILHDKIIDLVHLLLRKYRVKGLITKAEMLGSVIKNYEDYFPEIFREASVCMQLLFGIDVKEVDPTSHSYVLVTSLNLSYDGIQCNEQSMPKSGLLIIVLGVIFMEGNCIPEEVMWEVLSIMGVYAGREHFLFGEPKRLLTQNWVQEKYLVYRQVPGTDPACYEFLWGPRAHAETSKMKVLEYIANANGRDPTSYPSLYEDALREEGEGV
Assay: TR-FRET primary / single point screen at 15 µM
Type: binding
Method in brief: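 Single-point screen at 15 µM final compound in 50 mM Tris pH 7.5, 20 mM MgCl2, 0.1 mg/ml BSA, 1 mM DTT, with 200 nM FAM-PCF11_4, 5 nM Tb-anti-GST and 5 nM GST-MAGE-A11. After 90 min at room temperature, the 520/490 nm TR-FRET ratio (340 nm excitation) gave %Inhibition against no-MAGE-A11 and DMSO controls.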

[1] = single point TR-FRET screening of 797 quinoline compounds against MAGE-A11:PCF11
[2] = single point TR-FRET screening of quinoline compounds against MAGE-A11:PCF11, 15 µM

| SMILES | percent inhibition (TR-FRET) [1] | percent inhibition (TR-FRET) [2] |
| --- | --- | --- |
| COc1cccc(CN(CCCCNc2ccnc3cc(Cl)ccc23)Cc2ccccc2)c1 [SJ000361210] | 11.7175 |  |
| CCOC(=O)c1cnc2ccc(F)cc2c1NCCCN1CCOCC1 [SJ000279864] |  | -0.3915 |
| O=S(=O)(c1ccc(Br)cc1)N1CCN(c2ccnc3cc(Cl)ccc23)CC1 [SJ000201754] | -16.7513 |  |
| FC(F)(F)c1ccc2c(NCCCNCc3cc4ccccc4s3)ccnc2c1 [SJ000521060] |  | 35.6327 |
| COc1ccc2nc3cc(Cl)ccc3c(NCCCNCc3cccs3)c2c1 [SJ000361088] | -453.536 |  |
| CCc1ccc(S(=O)(=O)c2cnc3ccccc3c2N2CCN(c3ccccc3F)CC2)cc1 [SJ000117079] | -56.5833 |  |
| CCc1ccc2ncc(C(=O)c3ccccc3)c(N3CCN(CC)CC3)c2c1 [SJ000247281] | -2.261 |  |
| CCCN(CCCNc1ccnc2cc(Cl)ccc12)Cc1cc(OC)ccc1F [SJ000522996] |  | 26.6585 |
| CCOc1ccc2ncc(S(=O)(=O)c3ccc(C)cc3)c(N3CCN(c4ccccc4)CC3)c2c1 [SJ000117049] | -45.3213 |  |
| COc1ccc2ncc(S(=O)(=O)c3ccc(C)cc3)c(N3CCN(c4ccc(F)cc4)CC3)c2c1 [SJ000117059] | -118.524 |  |
| O=C(CN1CCN(C(=O)c2ccccc2)CC1)Nc1c2c(nc3ccccc13)N(c1cccc(Cl)c1)CC2 [SJ000111683] | -264.327 |  |
| CCCN(CCCNc1ccnc2cc(C(F)(F)F)ccc12)Cc1ccccc1O [SJ000361257] |  | 26.5044 |
| CCc1ccc(CN(CCCCNc2ccnc3cc(Cl)ccc23)Cc2ccccc2)cc1 [SJ000520443] | 29.9089 |  |
| CCCN(CCCNc1c2ccc(Cl)cc2nc2ccc(OC)cc12)Cc1ccc(Cl)cc1Cl [SJ000520956] |  | 9.598 |
| COc1ccccc1CN(CCCNc1ccnc2cc(Cl)ccc12)Cc1ccccc1 [SJ000522722] |  | 4.43 |
| COc1ccc(CN(CCCCNc2ccnc3cc(Cl)ccc23)Cc2ccccc2)cc1OC [SJ000522728] | 0.05797 |  |
| CCCCNCCCNc1ccnc2cc(Cl)ccc12 [SJ000521027] |  | 8.4544 |
| Clc1ccc2c(NCCCN(Cc3ccccc3)Cc3nccs3)ccnc2c1 [SJ000312676] |  | -4.148 |
| Cc1ccc(S(=O)(=O)c2cnc3ccccc3c2N2CCN(C)CC2)cc1 [SJ000247268] | -13.5889 |  |
| CCCCN(CCCC)CC(=O)Nc1c2c(nc3ccccc13)N(C)CC2 [SJ000331523] | 2.503 |  |
| COc1ccc2nc3cc(Cl)ccc3c(NCCCNCc3ccc(C)s3)c2c1 [SJ000523029] | -304.796 |  |
| COc1ccccc1N1CCN(c2c(S(=O)(=O)c3ccccc3)cnc3ccc(C)cc23)CC1 [SJ000315081] | -19.5512 |  |

| SMILES | percent inhibition (TR-FRET) [1] | percent inhibition (TR-FRET) [2] |
| --- | --- | --- |
| COc1ccc2nc3cc(Cl)ccc3c(NCCCNCCCSC)c2c1 [SJ000523025] | -336.863 |  |
| c1coc(CNCCCNc2ccnc3cc(-c4ccc5c(c4)OCO5)ccc23)c1 [SJ000311290] |  | 30.7894 |
| COc1ccccc1N1CCN(c2c(S(=O)(=O)c3ccc(C)cc3)cnc3ccc(C)cc23)CC1 [SJ000117066] | -92.8867 |  |
| O=S(=O)(c1ccccc1)c1cnc2ccc(Cl)cc2c1N1CCN(Cc2ccccc2)CC1 [SJ000247242] | -30.2832 |  |
| CCCN(CCCNc1ccnc2cc(C(F)(F)F)ccc12)Cc1nc2ccccc2s1 [SJ000520484] |  | 7.404 |
| Cn1ccnc1CNCCCNc1ccnc2cc(C(F)(F)F)ccc12 [SJ000521068] |  | 10.1938 |
| CCCN(CCCNc1c2ccc(Cl)cc2nc2ccc(OC)cc12)Cc1ccccc1OC [SJ000520950] | -271.121 |  |
| Fc1ccc(CN(CCCNc2ccnc3cc(Cl)ccc23)Cc2ccccc2)cc1 [SJ000522721] |  | 18.0772 |
| COc1ccc2nc3cc(Cl)ccc3c(NCCCNCc3ccccc3N)c2c1 [SJ000523031] |  | -57.1504 |
| CCCN(CCCNc1ccnc2cc(Cl)ccc12)Cc1cccc(F)c1 [SJ000522758] |  | 27.418 |
| CCCN(CCCNc1c2ccc(Cl)cc2nc2ccc(OC)cc12)Cc1cc(OC)ccc1F [SJ000522965] |  | -81.2358 |
| Oc1ccc(Br)cc1CN1CCC(Nc2ccnc3cc(Cl)ccc23)CC1 [SJ000311181] | -1.209 |  |
| COc1ccc2nc3cc(Cl)ccc3c(NCCCNCc3nccs3)c2c1 [SJ000520989] | -355.207 |  |
| CC(C)(C)CCN(CCCNc1ccnc2cc(Cl)ccc12)Cc1ccccc1 [SJ000357578] |  | 25.6873 |
| CCCN(CCCNc1c2ccc(Cl)cc2nc2ccc(OC)cc12)CCCc1ccccc1 [SJ000520958] | -267.24 |  |
| CCCCN(CCC)CCCNc1ccnc2cc(C(F)(F)F)ccc12 [SJ000520477] |  | 23.5778 |
| CCCN(CCCNc1ccnc2cc(C(F)(F)F)ccc12)Cc1ccc2[nH]ccc2c1 [SJ000575171] |  | 32.8899 |
| Clc1ccc2c(NCCCCN(Cc3ccccc3)Cc3ccncc3)ccnc2c1 [SJ000361190] | -9.945 |  |
| CCCN(CCCNc1ccnc2cc(Cl)ccc12)Cc1ccc(-c2cccc(Cl)c2)o1 [SJ000523045] |  | 16.2262 |
| CCCN(CCCNc1ccnc2cc(Cl)ccc12)Cc1ccc(OC(F)(F)F)cc1 [SJ000522999] |  | 22.7376 |
| Clc1ccc2c(NCCCCN(Cc3ccccc3)Cc3ccc(Br)o3)ccnc2c1 [SJ000312684] | 14.9636 |  |
| CCCN(CCCNc1c2ccc(Cl)cc2nc2ccc(OC)cc12)CCCSC [SJ000522730] |  | 0.7867 |

| SMILES | percent inhibition (TR-FRET) [1] | percent inhibition (TR-FRET) [2] |
| --- | --- | --- |
| Cc1ccc(CN(CCCNc2ccnc3cc(Cl)ccc23)Cc2ccccc2)o1 [SJ000312669] |  | 2.84 |
| CCCN(CCCNc1ccnc2cc(C(F)(F)F)ccc12)Cc1ccco1 [SJ000361265] |  | 24.1057 |
| CC(C)Cc1ccc2c(NCCCNCc3ccco3)ccnc2c1 [SJ000311258] |  | 8.8745 |
| COc1ccc(F)c(CN(CCCCNc2ccnc3cc(Cl)ccc23)Cc2ccccc2)c1 [SJ000520441] | 14.5458 |  |
| CCCN(CCCCNc1ccnc2cc(Cl)ccc12)Cc1cc(Br)ccc1O [SJ000311196] | 5.724 |  |
| CCc1ccc2ncc(S(=O)(=O)c3ccc(C)c(C)c3)c(N3CCN(CC)CC3)c2c1 [SJ000247334] | -4.712 |  |
| Cc1ccc(S(=O)(=O)c2cnc3ccccc3c2N2CCN(c3ccc(F)cc3)CC2)cc1C [SJ000117062] | -54.8642 |  |
| FC(F)(F)c1ccccc1CN(CCCCNc1ccnc2cc(Cl)ccc12)Cc1ccccc1 [SJ000361192] | 27.8155 |  |
| CCCN(CCCNc1ccnc2cc(Cl)ccc12)Cc1ccc(OC)c(F)c1 [SJ000522994] |  | 15.1623 |
| CCOc1ccc2ncc(S(=O)(=O)c3ccc(C)cc3)c(N3CCN(CC)CC3)c2c1 [SJ000083964] | -5.899 |  |
| CCCN(CCCNc1ccnc2cc(C(F)(F)F)ccc12)Cc1ccc2c(c1)OCO2 [SJ000361270] |  | 5.623 |
| FC(F)(F)c1cc(CN(CCCCNc2ccnc3cc(Cl)ccc23)Cc2ccccc2)ccc1Cl [SJ000520466] | 25.2787 |  |
| Cc1ccc(CN(CCCCNc2ccnc3cc(Cl)ccc23)Cc2ccccc2)o1 [SJ000312682] | 2.013 |  |
| O=[N+]([O-])c1cccc(CN(CCCNc2ccnc3cc(Cl)ccc23)Cc2ccccc2)c1 [SJ000361178] |  | 17.0172 |
| CCCN(CCCNc1ccnc2cc(Cl)ccc12)Cc1c(F)c(F)c(F)c(F)c1F [SJ000522748] |  | 19.8658 |
| CCOC(=O)c1cnc2c(ccc3ccccc32)c1NCCN(C)C [SJ000019487] | 6.418 |  |
| CCCCCN(CCCNc1ccnc2cc(Cl)ccc12)Cc1ccccc1 [SJ000361173] |  | 26.5568 |
| CCCN(CCCNc1ccnc2cc(Cl)ccc12)Cc1ccc[nH]1 [SJ000357445] |  | 10.3448 |
| Clc1ccc2c(NCCCN(Cc3ccccc3)CC3CCCCC3)ccnc2c1 [SJ000361171] |  | 28.213 |
| CCCN(CCCNc1c2ccc(Cl)cc2nc2ccc(OC)cc12)Cc1cccc2c1OCO2 [SJ000522979] | -107.991 |  |
